Like-named read-outs stand apart in the source and are kept apart here. Where a SMILES comes first, the peptide text is derived from it.
Tests used:
[1] = tested on: human mesenchymal stem cells (hMSCs); experiment: Cytocompatibility, WST-1 cell metabolic activity assay; format: cell-based; settings: for cytocompatibility / tolerance: fragments particularly if the acidity was neutralized
Method: Human mesenchymal stem cells, hMSCs, were obtained from Lonza (Basel, Switzerland) and cultured in MSC growth medium (MSCGM) with 5% fetal bovine serum, 2% L-glutamine and 0.1% penicillin-streptomycin (Lonza). The cell metabolic activity was measured with the Cell Proliferation Reagent WST-1 assay (Roche Diagnostics, Mannheim, Germany). Briefly, 5000 hMSC cells were seeded in each well and media containing the sample was added to the desired concentration (n=6). After incubation for 72 hours at 37° C., the media was aspirated and media containing 10% WST-1 reagent added for 2 hours. The absorbance at 450 nm was measured subtracting the absorbance at 600 nm. The absorbance readings were further normalized against cells cultured in media containing an equivalent volume of PBS (i.e. 100% cell survival) to determine the percentage cell viability. Cells cultured with an equivalent volume of ethanol were used as a negative control (i.e. 100% cell death).
In order to determine depsipeptide cytotoxicity and effect on cell proliferation, human mesenchymal stem cells (hMSCs) were incubated with various concentrations of the depsipeptide and their metabolic activity and viability was tested after 3 days. Cell viability decreased with increasing depsipeptide concentration. […] To address concerns that the cytotoxicity could be attributed to the degradation products following hydrolysis of the ester bond, the possible degradation products, the peptide Ac-ILV and depsipeptide HO-aGK-NH2, were also evaluated.

[2] = Minimum gelation concentration / hydrogel formation; format: physicochemical
Method: In order to determine the minimum gelation concentration in water, the depsipeptide was dissolved in MilliQ water.
Liskamp reported depsipetides based on the amylin (20-29) structure.

[3] = 2 mg/mL in PBS
Method: In order to test the degradation ability of the depsipeptide, 2 mg/mL was dissolved in PBS puffer at pH 5.7, 7.3 and 8.5. All samples were incubated at 37° C. and analysed by HPLC-MS.
In order to characterize the degradation products of the depsipeptide Ac-ILV-OH and HO-aGK-NH2 were synthesized and the retention time was determined by HPLC-MS.

[4] = MilliQ water, depsipeptide sample left at room temperature

Question: With CC[C@H](C)[C@H](NC(C)=O)C(=O)N[C@@H](CC(C)C)C(=O)N[C@H](C(=O)O)C(C)C [Ac-ILV] (Ac-Ile-Leu-Val-OH) as the compound, how does the cytocompatibility / tolerance ([1]; 3 days) read?
Answer: extremely well tolerated

Question: With “Ac-IK6-NH2: parent ultrashort self-assembling peptide Ac-ILVAGK-NH2, without α-hydroxy acid [reference compound]” as the compound, how does the minimum gelation concentration [2, 4] read?
Answer: 10 mg/mL

Question: For CC(O)C(=O)NCC(=O)N[C@@H](CCCCN)C(N)=O (some centres unmarked) [HO-aGK-NH2] (HELM PEPTIDE1{[CC(O)C(=O)[*:2]].G.K.[am]}$$$$V2.0), which “concentration at which significant cytotoxicity was demonstrated” value ([1]; 3 days, WST-1) is on record?
Answer: > 10000 µg/mL

Question: And the cytocompatibility / tolerance ([1]; 3 days)?
Answer: extremely well tolerated

Question: Which hydrogel formation ([2]; 100 mg/mL dissolved in 90% water, 10% 10xPBS added) does the source give for CC[C@H](C)[C@H](NC(C)=O)C(=O)N[C@@H](CC(C)C)C(=O)N[C@H](C(=O)OC(C)C(=O)NCC(=O)N[C@@H](CCCCN)C(N)=O)C(C)C (some centres unmarked) [Ac-ILVaGK-NH2, Acetylated isoleucine-leucine-valine-lactic acid-glycine-lysine] (HELM PEPTIDE1{[ac].I.L.V.[CC(O[*:1])C(=O)[*:2]].G.K.[am]}$$$$V2.0) here?
Answer: instantaneous hydrogel formation

Question: And the minimum gelation concentration [2, 4]?
Answer: 100 mg/mL

Question: What about the “minimum gelation concentration relative to parent peptide Ac-IK6-NH2” value ([2]; in water as well as in 1xPBS buffer) of the same compound?
Answer: about 10 times

Question: What about the minimum gelation concentration ([2]; with PBS buffer added (1x PBS)) of the same compound?
Answer: 60 mg/mL

Question: And the “stability (degradation)” value ([3]; pH 5.7, 37° C., compared with pH 7.3 and 8.5)?
Answer: most

Question: And the “stability (degradation)” value ([3]; pH 8.5, 37° C., compared with pH 5.7 and 7.3)?
Answer: least stable

Question: What about the “IC50 (cell viability)” value ([1]; 3 days (72 hours) incubation, WST-1) of the same compound?
Answer: approximately 15 mg/mL
